Experimental data as given in ChEMBL document CHEMBL1140120, “Discovery of biphenyl piperazines as novel and long acting muscarinic acetylcholine receptor antagonists” (J Med Chem, 2008).
≈ marks a conversion by molar mass, not a printed value. Calls of active or inactive are those of the source. The rule behind the calls is not given here.

Tests used:
Cytochrome P450 2D6 = Cytochrome P450 2D6 (Homo sapiens, UniProt P10635); assay: Inhibition of CYP2D6; assay type: ADME
Mus musculus [1] = assay: Inhibition of methacholine-induced bronchoconstriction in intranasally single dosed conscious BALB/c mouse assessed by measuring enhanced pause at 5 ug after 72 hrs by barometric plethysmography relative to control; assay type: functional
Mus musculus [2] = assay: Inhibition of methacholine-induced bronchoconstriction in intranasally single dosed conscious BALB/c mouse assessed by measuring enhanced pause at 5 ug after 24 hrs by barometric plethysmography relative to control; assay type: functional
[3] = Aqueous solubility of the compound; assay type: physicochemical; details: buffer
Mus musculus [4] = assay: Inhibition of methacholine-induced bronchoconstriction in intranasally single dosed conscious BALB/c mouse assessed by measuring enhanced pause at 5 ug after 15 mins by barometric plethysmography relative to control; assay type: functional
Cytochrome P450 2C19 = Cytochrome P450 2C19 (Homo sapiens, UniProt P33261); assay: Inhibition of CYP2C19; assay type: ADME
Cytochrome P450 2C19, sequence (P33261 whole entry): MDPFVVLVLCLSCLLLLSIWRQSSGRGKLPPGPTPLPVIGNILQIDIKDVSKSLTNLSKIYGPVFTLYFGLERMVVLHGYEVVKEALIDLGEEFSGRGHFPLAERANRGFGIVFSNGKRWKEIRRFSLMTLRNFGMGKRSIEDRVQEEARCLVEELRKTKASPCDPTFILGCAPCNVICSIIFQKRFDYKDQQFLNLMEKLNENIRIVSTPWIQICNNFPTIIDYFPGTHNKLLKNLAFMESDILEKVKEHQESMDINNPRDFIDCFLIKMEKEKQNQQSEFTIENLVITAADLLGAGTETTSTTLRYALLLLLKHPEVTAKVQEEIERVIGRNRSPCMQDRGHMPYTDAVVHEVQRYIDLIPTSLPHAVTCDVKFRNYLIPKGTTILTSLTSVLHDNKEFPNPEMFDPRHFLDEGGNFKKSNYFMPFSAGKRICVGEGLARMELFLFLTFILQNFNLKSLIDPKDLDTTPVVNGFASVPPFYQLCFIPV

[5] = molecular target: T1, Muscarinic acetylcholine receptor M2 (Homo sapiens, UniProt P08172); assay: Antagonist activity at cloned muscarinic M2 receptor-Gqi5 chimeric protein expressed in CHO cells assessed as acetylcholine-induced change in cytosolic calcium concentration by FLIPR assay; assay type: functional, cell-based; details: read-out: pA2 (converted)
T1 sequence (P08172 whole entry): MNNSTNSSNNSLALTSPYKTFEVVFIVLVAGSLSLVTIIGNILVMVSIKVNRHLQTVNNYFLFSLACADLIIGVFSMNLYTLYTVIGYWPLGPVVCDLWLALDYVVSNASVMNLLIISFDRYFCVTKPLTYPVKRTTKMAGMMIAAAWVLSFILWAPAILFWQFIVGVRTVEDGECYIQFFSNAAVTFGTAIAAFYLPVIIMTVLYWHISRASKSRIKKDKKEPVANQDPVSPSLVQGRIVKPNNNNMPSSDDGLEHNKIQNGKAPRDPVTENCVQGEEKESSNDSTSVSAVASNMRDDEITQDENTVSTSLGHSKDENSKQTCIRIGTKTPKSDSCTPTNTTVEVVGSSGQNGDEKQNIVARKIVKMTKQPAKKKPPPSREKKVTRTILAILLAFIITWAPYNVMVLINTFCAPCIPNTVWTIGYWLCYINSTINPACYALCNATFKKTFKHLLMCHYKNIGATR

[6] = Inhibition of opioid receptor at 10 uM
[7] = molecular target: Muscarinic acetylcholine receptors; M2 & M3 (Homo sapiens) (UniProt P20309+P08172); assay: Selectivity for human cloned muscarinic M3 receptor over human cloned muscarinic M2 receptor
Muscarinic acetylcholine receptors; M2 & M3 (Homo sapiens), sequence (P20309 whole entry, looked up, one chain of several): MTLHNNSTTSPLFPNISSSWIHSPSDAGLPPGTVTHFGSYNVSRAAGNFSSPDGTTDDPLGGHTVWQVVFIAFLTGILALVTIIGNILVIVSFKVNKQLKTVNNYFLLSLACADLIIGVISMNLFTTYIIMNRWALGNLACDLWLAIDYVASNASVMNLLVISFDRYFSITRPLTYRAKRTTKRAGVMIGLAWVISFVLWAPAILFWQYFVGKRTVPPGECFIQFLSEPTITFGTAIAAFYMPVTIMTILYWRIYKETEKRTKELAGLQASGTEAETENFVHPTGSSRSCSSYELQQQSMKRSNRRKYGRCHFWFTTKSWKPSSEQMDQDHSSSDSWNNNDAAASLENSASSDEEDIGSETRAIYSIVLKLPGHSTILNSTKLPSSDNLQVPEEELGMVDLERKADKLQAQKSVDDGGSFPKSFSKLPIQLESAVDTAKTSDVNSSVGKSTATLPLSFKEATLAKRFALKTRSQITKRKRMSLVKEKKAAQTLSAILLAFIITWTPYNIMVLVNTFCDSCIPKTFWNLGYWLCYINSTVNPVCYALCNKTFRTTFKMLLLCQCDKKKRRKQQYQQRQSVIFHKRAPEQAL

[8] = molecular target: Muscarinic acetylcholine receptor M1 and M3 (Homo sapiens) (UniProt P20309+P11229); assay: Selectivity for human cloned muscarinic M3 receptor over human cloned muscarinic M1 receptor
Muscarinic acetylcholine receptor M1 and M3 (Homo sapiens), sequence (P20309 whole entry, looked up, one chain of several): as above

[9] = molecular target: Voltage-gated inwardly rectifying potassium channel KCNH2 (Homo sapiens, UniProt Q12809); assay: Inhibition of human ERG
Voltage-gated inwardly rectifying potassium channel KCNH2, sequence (Q12809 whole entry): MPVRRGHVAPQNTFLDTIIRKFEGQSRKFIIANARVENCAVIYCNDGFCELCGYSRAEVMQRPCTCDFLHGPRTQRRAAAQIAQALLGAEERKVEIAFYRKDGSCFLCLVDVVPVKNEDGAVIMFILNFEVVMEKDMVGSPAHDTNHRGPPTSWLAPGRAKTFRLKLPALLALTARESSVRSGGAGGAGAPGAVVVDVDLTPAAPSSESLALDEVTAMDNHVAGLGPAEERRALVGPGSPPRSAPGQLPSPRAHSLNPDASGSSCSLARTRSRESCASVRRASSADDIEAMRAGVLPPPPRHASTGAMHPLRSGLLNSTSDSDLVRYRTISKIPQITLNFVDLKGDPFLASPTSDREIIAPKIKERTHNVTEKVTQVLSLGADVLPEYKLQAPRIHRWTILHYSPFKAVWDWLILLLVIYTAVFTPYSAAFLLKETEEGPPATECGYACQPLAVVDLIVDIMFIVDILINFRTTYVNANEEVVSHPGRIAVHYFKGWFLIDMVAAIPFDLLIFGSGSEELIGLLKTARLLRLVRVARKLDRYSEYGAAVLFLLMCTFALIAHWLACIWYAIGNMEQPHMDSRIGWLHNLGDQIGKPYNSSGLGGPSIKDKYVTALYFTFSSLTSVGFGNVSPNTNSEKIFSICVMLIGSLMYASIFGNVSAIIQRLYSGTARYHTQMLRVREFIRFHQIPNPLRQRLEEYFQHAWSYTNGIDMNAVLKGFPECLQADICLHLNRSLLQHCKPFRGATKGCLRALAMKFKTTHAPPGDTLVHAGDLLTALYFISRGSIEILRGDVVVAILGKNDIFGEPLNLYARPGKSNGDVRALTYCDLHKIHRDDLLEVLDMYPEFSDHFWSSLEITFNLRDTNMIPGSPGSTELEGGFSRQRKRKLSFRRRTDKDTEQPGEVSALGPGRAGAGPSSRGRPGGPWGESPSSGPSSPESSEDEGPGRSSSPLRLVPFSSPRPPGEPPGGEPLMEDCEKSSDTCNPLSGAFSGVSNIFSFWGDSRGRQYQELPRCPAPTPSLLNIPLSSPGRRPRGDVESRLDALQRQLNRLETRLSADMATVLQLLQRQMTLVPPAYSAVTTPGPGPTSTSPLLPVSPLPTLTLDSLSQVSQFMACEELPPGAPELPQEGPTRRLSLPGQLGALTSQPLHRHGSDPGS

[10] = molecular target: T2, Muscarinic acetylcholine receptor M1 (Homo sapiens, UniProt P11229); assay: Antagonist activity at cloned muscarinic M1 receptor expressed in CHO cells assessed as acetylcholine-induced change in cytosolic calcium concentration by FLIPR assay; assay type: functional, cell-based; details: read-out: pA2 (converted)
T2 sequence (P11229 whole entry): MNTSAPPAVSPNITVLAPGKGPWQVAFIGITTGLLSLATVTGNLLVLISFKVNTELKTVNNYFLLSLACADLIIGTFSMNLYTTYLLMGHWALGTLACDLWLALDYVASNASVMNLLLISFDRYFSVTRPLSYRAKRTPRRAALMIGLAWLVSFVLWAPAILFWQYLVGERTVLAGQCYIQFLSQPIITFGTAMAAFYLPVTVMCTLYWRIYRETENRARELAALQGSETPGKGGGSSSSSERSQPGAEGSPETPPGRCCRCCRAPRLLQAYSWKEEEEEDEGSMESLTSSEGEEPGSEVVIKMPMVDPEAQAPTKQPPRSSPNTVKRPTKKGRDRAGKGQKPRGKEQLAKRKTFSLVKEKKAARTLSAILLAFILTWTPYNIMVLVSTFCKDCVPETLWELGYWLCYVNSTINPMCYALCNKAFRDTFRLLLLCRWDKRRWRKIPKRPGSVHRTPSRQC

Cytochrome P450 1A2 = molecular target: T3, Cytochrome P450 1A2 (Homo sapiens, UniProt P05177); assay: Inhibition of CYP1A2; assay type: ADME
T3 sequence (P05177 whole entry): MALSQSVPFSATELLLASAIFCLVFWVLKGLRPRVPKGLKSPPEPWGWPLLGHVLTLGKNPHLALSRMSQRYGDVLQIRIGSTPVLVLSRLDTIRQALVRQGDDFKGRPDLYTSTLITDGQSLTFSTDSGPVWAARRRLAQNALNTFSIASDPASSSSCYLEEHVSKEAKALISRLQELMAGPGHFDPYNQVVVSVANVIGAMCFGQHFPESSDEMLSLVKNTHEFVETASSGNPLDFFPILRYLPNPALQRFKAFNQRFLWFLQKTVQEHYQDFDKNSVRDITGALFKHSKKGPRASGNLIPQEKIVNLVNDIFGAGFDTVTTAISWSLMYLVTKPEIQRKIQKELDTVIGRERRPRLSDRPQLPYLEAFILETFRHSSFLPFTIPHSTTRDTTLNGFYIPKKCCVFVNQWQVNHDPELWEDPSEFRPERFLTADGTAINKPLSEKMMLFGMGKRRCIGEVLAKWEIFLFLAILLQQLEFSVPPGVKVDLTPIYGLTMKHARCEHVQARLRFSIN

[11] = Inhibition of serotonin receptor at 10 uM
[12] = Permeability across artificial phospholipid membrane; assay type: ADME; details: not told; read-out: permeability
[13] = Inhibition of alpha adrenergic receptor at 10 uM
Cytochrome P450 2C9 = Cytochrome P450 2C9 (Homo sapiens, UniProt P11712); assay: Inhibition of CYP2C9; assay type: ADME
Cytochrome P450 2C9, sequence (P11712 whole entry): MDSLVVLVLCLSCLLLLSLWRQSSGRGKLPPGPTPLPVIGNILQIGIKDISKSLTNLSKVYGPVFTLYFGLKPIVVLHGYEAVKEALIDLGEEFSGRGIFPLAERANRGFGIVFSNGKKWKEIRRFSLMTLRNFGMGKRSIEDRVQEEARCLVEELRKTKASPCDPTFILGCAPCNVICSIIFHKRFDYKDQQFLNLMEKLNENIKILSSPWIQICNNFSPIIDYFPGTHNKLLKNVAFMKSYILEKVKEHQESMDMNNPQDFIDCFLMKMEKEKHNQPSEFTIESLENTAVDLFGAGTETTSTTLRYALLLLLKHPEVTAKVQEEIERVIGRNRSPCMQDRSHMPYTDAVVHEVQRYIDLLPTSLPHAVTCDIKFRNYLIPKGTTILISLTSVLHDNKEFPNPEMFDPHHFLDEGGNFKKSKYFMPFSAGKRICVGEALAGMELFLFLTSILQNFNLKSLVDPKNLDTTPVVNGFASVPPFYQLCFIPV

[14] = molecular target: T4, Muscarinic acetylcholine receptor M3 (Homo sapiens, UniProt P20309); details: CHO
Target sequence in this assay (P20309 whole entry, looked up): as the sequence (P20309 whole entry, looked up, one chain of several) above
Description: Antagonist activity at cloned muscarinic M3 receptor expressed in CHO cells assessed as acetylcholine-induced change in cytosolic calcium concentration pretreated for 30 mins by FLIPR assay

Mus musculus [15] = assay: Inhibition of methacholine-induced bronchoconstriction in intranasally single dosed conscious BALB/c mouse assessed by measuring enhanced pause at 5 ug after 5 hrs by barometric plethysmography relative to control; assay type: functional
Cytochrome P450 3A4 = Cytochrome P450 3A4 (Homo sapiens, UniProt P08684); assay: Inhibition of CYP3A4; assay type: ADME
Cytochrome P450 3A4, sequence (P08684 whole entry): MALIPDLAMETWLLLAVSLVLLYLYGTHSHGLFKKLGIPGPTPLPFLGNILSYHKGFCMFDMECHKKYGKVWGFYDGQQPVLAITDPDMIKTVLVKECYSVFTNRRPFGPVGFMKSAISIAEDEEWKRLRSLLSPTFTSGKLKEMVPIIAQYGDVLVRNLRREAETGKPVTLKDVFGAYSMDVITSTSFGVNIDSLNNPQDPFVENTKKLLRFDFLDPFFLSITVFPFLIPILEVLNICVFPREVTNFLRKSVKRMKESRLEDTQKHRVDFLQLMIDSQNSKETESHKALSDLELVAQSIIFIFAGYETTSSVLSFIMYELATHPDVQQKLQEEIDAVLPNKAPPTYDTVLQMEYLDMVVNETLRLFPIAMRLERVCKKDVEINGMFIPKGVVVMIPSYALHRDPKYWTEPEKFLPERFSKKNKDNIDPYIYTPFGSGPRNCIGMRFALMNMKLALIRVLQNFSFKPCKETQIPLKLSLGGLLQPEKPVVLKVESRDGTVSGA

Mus musculus [16] = assay: Inhibition of methacholine-induced bronchoconstriction in intranasally single dosed conscious BALB/c mouse assessed by measuring enhanced pause at 5 ug after 48 hrs by barometric plethysmography relative to control; assay type: functional
[17] = molecular target: T4, Muscarinic acetylcholine receptor M3; assay: Antagonist activity at cloned muscarinic M3 receptor expressed in CHO cells assessed as acetylcholine-induced change in cytosolic calcium concentration by FLIPR assay; assay type: functional, cell-based; details: read-out: pA2 (converted)
Target sequence in this assay (P20309 whole entry): as the sequence (P20309 whole entry, looked up, one chain of several) above

[18] = molecular target: T4, Muscarinic acetylcholine receptor M3; assay: Displacement of [3H]N-methyl Scopolamine from human cloned muscarinic M3 receptor expressed in CHO cells by scintillation proximity assay; assay type: cell-based
Target sequence in this assay (P20309 whole entry): as the sequence (P20309 whole entry, looked up, one chain of several) above

[19] = molecular target: T2, Muscarinic acetylcholine receptor M1; assay: Inhibition of human cloned muscarinic M1 expressed in CHO cells by FLIPR assay; assay type: cell-based
[20] = molecular target: T1, Muscarinic acetylcholine receptor M2; assay: Inhibition of human cloned muscarinic M2 receptor-Gqi5 chimeric protein expressed in CHO cells by FLIPR assay; assay type: cell-based
[21] = molecular target: T4, Muscarinic acetylcholine receptor M3; assay: Inhibition of human cloned muscarinic M3 receptor expressed in CHO cells by FLIPR assay; assay type: cell-based
Target sequence in this assay (P20309 whole entry): as the sequence (P20309 whole entry, looked up, one chain of several) above

Cytochrome P450 2D6, sequence (P10635 whole entry): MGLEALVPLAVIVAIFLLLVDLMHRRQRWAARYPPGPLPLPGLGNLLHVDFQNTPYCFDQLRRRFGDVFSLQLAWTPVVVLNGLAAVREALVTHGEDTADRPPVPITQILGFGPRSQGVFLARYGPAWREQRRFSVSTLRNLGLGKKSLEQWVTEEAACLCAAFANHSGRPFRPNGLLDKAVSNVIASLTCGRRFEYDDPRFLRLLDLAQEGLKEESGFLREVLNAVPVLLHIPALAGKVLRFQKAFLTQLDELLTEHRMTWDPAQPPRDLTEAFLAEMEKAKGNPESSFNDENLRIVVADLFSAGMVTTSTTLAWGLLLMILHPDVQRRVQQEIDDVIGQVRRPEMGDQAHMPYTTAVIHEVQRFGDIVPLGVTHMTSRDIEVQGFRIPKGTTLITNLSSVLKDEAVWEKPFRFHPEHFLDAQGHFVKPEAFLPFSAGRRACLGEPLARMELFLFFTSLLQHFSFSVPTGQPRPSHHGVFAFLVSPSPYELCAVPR

| Kb [5] [nM] | Ratio [7] | Ratio [8] | Kb [10] [nM] | Kb [17] [nM] | Compound | inhibition (INH) (Mus musculus [15]) [%] | further results |
| --- | --- | --- | --- | --- | --- | --- | --- |
| 5.01 | 500 | 20 | 2.51 | 0.01 | C[C@H]1CN(Cc2cccc(-c3cc(CNC(=O)c4cccc(CC5CCNCC5)c4)ccc3F)c2)CCN1 | 94 | IC50 (Cytochrome P450 2D6): > 10000 nM; inhibition (INH) (Mus musculus [1]): 25%; inhibition (INH) (Mus musculus [2]): 40%; solubility [3]: 200 µM (≈ 103 µg/mL); inhibition (INH) (Mus musculus [4]): 96%; IC50 (Cytochrome P450 2C19): > 10000 nM; inhibition [6]: 70%; IC50 [9]: 10000 nM; IC50 (Cytochrome P450 1A2): > 10000 nM; inhibition [11]: 70%; Papp [12]: < 0.3 ×10⁻⁶ cm/s; inhibition [13]: 70%; IC50 (Cytochrome P450 2C9): > 10000 nM; pKb [14]: 10.5; IC50 (Cytochrome P450 3A4): > 10000 nM; inhibition (INH) (Mus musculus [16]): 25%; Ki [18]: 0.0316 nM |
| 316 | – | – | 7.94 | 0.251 | C[C@H]1CN(Cc2cccc(-c3cc(CNC(=O)c4cccc(C#N)c4)ccc3F)c2)CCN1 | – | – |
| – | 100 | 5 | – | – | O=C(NCc1cccc(-c2cccc(CN3CCNCC3)c2)c1)c1ccc2c(c1)OCO2 | – | IC50 [19]: 158 nM; IC50 [20]: > 3160 nM; IC50 [21]: 31.6 nM |
| 25.1 | – | – | 1 | 0.0501 | CCC(=O)c1cccc(C(=O)NCc2ccc(F)c(-c3cccc(CN4CCN[C@@H](C)C4)c3)c2)c1 | 20 | Activity (Mus musculus [4]): Active |
| 12.6 | 80 | – | 2 | – | C[C@H]1CN(Cc2cccc(-c3cc(CNC(=O)c4cccc(CN5CC[N+](C)(C)CC5)c4)ccc3F)c2)CCN1.O=C([O-])C(F)(F)F | 85 | Activity (Mus musculus [2]): inactive; inhibition (INH) (Mus musculus [4]): 95% |
| 63.1 | 400 | 6 | 1 | 0.158 | C[C@H]1CN(Cc2cccc(-c3cc(CNC(=O)c4cccc(CN5CCNCC5)c4)ccc3F)c2)CCN1 | – | – |
| 100 | 2000 | 50 | 2.51 | 0.0501 | CC(=O)c1cccc(C(=O)NCc2ccc(F)c(-c3cccc(CN4CCN[C@@H](C)C4)c3)c2)c1 | 45 | Activity (Mus musculus [4]): Active |
